Experimental findings from ChEMBL document CHEMBL1154671, “Isoquinoline-based analogs of the cancer drug clinical candidate tipifarnib as anti-Trypanosoma cruzi agents” (Bioorg Med Chem Lett, 2009) are described below.

As a reminder, the EC50 is the concentration needed to bring the measured effect to its halfway point. Low values mean an effect from little substance, high ones a need for much substance.

For the assay, the system named is Trypanosoma cruzi. As to the kind of experiment: Antitrypanosomal activity against Trypanosoma cruzi Tulahuen infected in mouse 3T3 cells. Type of assay: functional, organism-based. Conditions: NIH3T3.

With `COC(c1ccc(Cl)cc1)(c1ccc2cncc(-c3c(F)cccc3F)c2c1)c1cncn1C` (stereo not given), the EC50 was determined as 0.9 nM.

Compound `COC(c1ccc(Cl)cc1)(c1ccc2cncc(-c3cccc(Cl)c3)c2c1)c1cncn1C` (stereo not given) gave an EC50 of 0.5 nM.

`Cn1cncc1[C@@](N)(c1ccc(Cl)cc1)c1ccc2c(c1)c(-c1cccc(Cl)c1)cc(=O)n2C` [TIPIFARNIB] registered an EC50 of 4 nM.

Compound `COC(c1ccc(Cl)cc1)(c1ccc2cnccc2c1)c1cncn1C` (stereo not given) returned an EC50 of 120 nM.

As to `CC[C@@H]([C@H](C)O)n1ncn(-c2ccc(N3CCN(c4ccc(OC[C@@H]5CO[C@@](Cn6cncn6)(c6ccc(F)cc6F)C5)cc4)CC3)cc2)c1=O` [POSACONAZOLE], the EC50 is 0.3 nM.
